Measurements reported in publication PMC10116495 (Journal of the American Chemical Society, 2023).
Residues, ends and D or L forms follow the SMILES beside them. *: point of attachment. Cbz = O=C(OCc1ccccc1)*

Tests used:
[1] = test system: NSD2; test: MG132, MLN4924 and TAK243 inhibitor assay; format: cell-based; conditions: U2OS cells, 6 h, 10 μM MG132, 1 μM MLN4924 or 1 μM TAK243
[2] = test system: H3K36me2; conditions: KMS11 t(4;14) multiple myeloma cells; cited from earlier work
[3] = test system: H3K36me1; test: H3K36me1 immunoblot in KMS11 cells; format: cell-based
[4] = biological target: T1, NSD2-long (Homo sapiens, UniProt O96028); test: Western blot of NSD2 in U2OS cells; format: cell-based; conditions: 10 μM, without replenishing the compound
T1 sequence (O96028 1-1365): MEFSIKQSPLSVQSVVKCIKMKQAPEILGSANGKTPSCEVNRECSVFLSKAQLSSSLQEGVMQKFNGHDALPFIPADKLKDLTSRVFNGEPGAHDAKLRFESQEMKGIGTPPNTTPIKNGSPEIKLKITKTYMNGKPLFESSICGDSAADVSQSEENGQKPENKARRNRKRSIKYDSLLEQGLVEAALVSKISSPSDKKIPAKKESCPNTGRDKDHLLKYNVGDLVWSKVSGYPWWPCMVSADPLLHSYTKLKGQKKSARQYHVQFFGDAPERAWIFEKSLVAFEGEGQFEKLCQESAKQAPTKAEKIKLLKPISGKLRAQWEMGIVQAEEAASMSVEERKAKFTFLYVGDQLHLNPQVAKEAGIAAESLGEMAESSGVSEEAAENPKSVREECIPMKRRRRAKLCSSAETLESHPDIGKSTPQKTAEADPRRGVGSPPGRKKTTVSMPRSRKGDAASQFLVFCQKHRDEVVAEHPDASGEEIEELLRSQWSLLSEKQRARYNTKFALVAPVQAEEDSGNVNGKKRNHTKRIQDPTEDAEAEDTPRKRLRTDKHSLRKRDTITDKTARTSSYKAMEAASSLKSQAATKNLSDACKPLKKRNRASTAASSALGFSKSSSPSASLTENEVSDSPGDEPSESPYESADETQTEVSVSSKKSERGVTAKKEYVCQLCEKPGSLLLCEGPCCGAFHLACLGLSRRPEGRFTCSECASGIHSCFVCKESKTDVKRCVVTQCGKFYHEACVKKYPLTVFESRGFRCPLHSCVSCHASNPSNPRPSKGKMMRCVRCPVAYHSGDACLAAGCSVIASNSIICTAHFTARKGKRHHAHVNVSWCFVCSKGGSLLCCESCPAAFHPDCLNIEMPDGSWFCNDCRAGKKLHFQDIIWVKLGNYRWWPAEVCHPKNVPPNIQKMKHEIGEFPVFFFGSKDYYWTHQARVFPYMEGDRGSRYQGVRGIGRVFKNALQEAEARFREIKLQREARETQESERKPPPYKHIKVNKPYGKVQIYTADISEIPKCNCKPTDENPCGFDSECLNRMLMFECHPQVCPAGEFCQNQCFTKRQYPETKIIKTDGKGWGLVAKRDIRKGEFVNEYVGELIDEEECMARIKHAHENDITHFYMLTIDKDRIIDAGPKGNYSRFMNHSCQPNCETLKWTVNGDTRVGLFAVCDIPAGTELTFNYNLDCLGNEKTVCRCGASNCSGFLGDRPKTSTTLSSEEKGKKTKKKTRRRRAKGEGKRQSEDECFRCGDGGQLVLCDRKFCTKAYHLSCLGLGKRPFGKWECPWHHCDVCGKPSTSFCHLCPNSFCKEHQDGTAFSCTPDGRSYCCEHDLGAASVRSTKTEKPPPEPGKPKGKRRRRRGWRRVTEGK

[5] = test system: KMS11 cells; test: Adhesion assay in KMS11 cells; format: cell-based; conditions: 25 μM, 14 days, compared to control (UNC8587)
[6] = test system: H3K36me2; test: H3K36me2 immunoblot in KMS11 cells; format: cell-based
[7] = biological target: T2, NanoLuc-NSD2-PWWP1 / HaloTag-Ubiquitin (Homo sapiens, UniProt O96028); test: NanoBRET ubiquitination assay; format: cell-based; conditions: compared to UNC6934 or the vehicle
T2 sequence (O96028 222-286 limits assumed): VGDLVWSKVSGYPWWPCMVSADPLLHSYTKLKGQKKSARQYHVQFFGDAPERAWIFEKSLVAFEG

[8] = test system: MM1S cells; test: MM1S dose-response treatment and proliferation assay; format: cell-based; conditions: increasing concentrations, 8 days, trypan blue cell count
[9] = test system: HEK293; test: HEK293 proliferation assay; format: cell-based; conditions: 20 μM, 5 days, confluency
[10] = test system: MDA-MB-231; test: MDA-MB-231 proliferation assay; format: cell-based; conditions: 20 μM, 5 days, confluency
[11] = biological target: T3, NSD2 (Homo sapiens, UniProt O96028); test: In-cell western; format: cell-based; conditions: U2OS cells, ICW
T3 sequence (O96028 1-627 limits assumed): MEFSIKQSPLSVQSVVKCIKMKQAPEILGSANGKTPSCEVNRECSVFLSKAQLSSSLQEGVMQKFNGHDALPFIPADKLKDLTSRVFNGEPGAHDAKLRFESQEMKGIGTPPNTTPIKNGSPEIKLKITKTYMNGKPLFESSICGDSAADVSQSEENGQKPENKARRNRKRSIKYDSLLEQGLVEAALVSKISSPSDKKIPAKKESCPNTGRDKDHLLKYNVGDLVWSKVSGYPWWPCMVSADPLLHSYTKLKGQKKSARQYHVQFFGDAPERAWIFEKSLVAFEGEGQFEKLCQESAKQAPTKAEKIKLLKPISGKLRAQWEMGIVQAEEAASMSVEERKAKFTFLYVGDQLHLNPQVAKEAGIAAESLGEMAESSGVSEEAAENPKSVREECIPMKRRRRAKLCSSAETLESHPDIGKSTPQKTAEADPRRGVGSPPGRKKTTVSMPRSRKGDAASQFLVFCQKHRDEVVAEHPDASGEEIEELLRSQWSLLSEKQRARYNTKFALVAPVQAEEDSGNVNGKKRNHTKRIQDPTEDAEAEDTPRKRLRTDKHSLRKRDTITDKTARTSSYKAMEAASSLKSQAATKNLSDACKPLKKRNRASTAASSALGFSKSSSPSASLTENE

[12] = biological target: NSD1 (Homo sapiens, UniProt Q96L73); test: Global proteomics and immunoblotting of NSD1 in U2OS cells; format: cell-based; conditions: 5 μM, 6 h proteomics, confirmed by immunoblotting
[13] = biological target: T4, NSD3 (Homo sapiens, UniProt Q9BZ95); test: Global proteomics and immunoblotting of NSD3 in U2OS cells; format: cell-based; conditions: 5 μM, 6 h proteomics, confirmed by immunoblotting
T4 sequence (Q9BZ95 1-1437): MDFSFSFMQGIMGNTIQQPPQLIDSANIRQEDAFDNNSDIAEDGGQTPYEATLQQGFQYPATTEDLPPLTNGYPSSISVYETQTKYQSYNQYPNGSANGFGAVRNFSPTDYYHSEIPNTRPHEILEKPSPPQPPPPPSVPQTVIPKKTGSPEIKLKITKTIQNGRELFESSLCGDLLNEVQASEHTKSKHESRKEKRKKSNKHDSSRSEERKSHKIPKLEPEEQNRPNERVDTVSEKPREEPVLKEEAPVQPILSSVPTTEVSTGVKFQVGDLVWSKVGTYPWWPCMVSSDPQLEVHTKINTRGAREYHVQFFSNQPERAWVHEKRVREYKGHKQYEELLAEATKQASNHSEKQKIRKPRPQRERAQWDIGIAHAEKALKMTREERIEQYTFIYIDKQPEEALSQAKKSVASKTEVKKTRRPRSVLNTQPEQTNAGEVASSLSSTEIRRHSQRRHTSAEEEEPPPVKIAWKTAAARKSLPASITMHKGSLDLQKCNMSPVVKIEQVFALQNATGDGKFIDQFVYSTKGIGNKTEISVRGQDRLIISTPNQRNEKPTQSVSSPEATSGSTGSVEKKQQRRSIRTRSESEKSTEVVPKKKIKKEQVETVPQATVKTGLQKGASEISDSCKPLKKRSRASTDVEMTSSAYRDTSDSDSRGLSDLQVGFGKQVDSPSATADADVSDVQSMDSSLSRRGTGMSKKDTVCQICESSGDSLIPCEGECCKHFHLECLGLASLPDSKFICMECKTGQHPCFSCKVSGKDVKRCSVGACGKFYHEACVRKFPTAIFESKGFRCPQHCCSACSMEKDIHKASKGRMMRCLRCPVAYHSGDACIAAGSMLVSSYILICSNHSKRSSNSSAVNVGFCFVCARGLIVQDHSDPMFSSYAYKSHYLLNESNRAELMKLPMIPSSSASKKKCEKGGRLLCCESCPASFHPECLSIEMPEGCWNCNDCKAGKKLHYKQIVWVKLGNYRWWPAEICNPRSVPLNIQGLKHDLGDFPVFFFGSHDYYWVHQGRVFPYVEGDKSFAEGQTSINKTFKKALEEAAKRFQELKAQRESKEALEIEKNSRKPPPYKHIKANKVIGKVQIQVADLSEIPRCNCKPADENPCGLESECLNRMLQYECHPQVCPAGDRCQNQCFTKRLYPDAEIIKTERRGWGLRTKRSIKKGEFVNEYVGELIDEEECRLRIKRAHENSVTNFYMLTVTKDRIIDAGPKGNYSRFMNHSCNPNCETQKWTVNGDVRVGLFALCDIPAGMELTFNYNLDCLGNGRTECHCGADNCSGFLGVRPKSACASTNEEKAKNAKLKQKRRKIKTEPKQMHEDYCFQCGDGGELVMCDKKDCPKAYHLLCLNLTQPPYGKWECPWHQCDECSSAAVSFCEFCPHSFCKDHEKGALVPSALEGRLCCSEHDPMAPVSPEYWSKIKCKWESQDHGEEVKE

[14] = test system: KMS11 cells; test: KMS11 CellTiter-Glo luminescence cell viability assay; format: cell-based; conditions: up to 30 μM, 8 days
[15] = test system: NSD family members; conditions: immunoblot
[16] = test system: H3K36me3; test: H3K36me3 immunoblot in KMS11 cells; format: cell-based
[17] = biological target: T1, NSD2-long; test: NSD2 immunoblot in KMS11 cells; format: cell-based; conditions: read-out: IB: NSD2-long DC50, 1−60 μM, 6 days
[18] = biological target: T3, NSD2; test: Global proteomics; format: cell-based; conditions: U2OS cells, 5 μM, 6 h, 7863 quantifiable proteins
[19] = test system: NSD2 and H3K36me2; test: NSD2 and H3K36me2 immunoblot in RS411 cells; format: cell-based; conditions: RS411, NSD2 E1099K, 10 μM, 6 days
[20] = test system: NSD2 and H3K36me2; test: NSD2 and H3K36me2 immunoblot in MM1S cells; format: cell-based; conditions: NSD2 E1099K, 10 μM, 6 days
[21] = test system: U2OS; test: U2OS proliferation assay; format: cell-based; conditions: 20 μM, 5 days, confluency
[22] = biological target: T5, NSD2-PWWP1 (Homo sapiens, UniProt O96028); conditions: previously shown by the authors; cited from earlier work
T5 sequence (O96028 222-286 limits assumed): T2 sequence (O96028 222-286 limits assumed)

Chain of NSD1 (Q96L73 whole entry): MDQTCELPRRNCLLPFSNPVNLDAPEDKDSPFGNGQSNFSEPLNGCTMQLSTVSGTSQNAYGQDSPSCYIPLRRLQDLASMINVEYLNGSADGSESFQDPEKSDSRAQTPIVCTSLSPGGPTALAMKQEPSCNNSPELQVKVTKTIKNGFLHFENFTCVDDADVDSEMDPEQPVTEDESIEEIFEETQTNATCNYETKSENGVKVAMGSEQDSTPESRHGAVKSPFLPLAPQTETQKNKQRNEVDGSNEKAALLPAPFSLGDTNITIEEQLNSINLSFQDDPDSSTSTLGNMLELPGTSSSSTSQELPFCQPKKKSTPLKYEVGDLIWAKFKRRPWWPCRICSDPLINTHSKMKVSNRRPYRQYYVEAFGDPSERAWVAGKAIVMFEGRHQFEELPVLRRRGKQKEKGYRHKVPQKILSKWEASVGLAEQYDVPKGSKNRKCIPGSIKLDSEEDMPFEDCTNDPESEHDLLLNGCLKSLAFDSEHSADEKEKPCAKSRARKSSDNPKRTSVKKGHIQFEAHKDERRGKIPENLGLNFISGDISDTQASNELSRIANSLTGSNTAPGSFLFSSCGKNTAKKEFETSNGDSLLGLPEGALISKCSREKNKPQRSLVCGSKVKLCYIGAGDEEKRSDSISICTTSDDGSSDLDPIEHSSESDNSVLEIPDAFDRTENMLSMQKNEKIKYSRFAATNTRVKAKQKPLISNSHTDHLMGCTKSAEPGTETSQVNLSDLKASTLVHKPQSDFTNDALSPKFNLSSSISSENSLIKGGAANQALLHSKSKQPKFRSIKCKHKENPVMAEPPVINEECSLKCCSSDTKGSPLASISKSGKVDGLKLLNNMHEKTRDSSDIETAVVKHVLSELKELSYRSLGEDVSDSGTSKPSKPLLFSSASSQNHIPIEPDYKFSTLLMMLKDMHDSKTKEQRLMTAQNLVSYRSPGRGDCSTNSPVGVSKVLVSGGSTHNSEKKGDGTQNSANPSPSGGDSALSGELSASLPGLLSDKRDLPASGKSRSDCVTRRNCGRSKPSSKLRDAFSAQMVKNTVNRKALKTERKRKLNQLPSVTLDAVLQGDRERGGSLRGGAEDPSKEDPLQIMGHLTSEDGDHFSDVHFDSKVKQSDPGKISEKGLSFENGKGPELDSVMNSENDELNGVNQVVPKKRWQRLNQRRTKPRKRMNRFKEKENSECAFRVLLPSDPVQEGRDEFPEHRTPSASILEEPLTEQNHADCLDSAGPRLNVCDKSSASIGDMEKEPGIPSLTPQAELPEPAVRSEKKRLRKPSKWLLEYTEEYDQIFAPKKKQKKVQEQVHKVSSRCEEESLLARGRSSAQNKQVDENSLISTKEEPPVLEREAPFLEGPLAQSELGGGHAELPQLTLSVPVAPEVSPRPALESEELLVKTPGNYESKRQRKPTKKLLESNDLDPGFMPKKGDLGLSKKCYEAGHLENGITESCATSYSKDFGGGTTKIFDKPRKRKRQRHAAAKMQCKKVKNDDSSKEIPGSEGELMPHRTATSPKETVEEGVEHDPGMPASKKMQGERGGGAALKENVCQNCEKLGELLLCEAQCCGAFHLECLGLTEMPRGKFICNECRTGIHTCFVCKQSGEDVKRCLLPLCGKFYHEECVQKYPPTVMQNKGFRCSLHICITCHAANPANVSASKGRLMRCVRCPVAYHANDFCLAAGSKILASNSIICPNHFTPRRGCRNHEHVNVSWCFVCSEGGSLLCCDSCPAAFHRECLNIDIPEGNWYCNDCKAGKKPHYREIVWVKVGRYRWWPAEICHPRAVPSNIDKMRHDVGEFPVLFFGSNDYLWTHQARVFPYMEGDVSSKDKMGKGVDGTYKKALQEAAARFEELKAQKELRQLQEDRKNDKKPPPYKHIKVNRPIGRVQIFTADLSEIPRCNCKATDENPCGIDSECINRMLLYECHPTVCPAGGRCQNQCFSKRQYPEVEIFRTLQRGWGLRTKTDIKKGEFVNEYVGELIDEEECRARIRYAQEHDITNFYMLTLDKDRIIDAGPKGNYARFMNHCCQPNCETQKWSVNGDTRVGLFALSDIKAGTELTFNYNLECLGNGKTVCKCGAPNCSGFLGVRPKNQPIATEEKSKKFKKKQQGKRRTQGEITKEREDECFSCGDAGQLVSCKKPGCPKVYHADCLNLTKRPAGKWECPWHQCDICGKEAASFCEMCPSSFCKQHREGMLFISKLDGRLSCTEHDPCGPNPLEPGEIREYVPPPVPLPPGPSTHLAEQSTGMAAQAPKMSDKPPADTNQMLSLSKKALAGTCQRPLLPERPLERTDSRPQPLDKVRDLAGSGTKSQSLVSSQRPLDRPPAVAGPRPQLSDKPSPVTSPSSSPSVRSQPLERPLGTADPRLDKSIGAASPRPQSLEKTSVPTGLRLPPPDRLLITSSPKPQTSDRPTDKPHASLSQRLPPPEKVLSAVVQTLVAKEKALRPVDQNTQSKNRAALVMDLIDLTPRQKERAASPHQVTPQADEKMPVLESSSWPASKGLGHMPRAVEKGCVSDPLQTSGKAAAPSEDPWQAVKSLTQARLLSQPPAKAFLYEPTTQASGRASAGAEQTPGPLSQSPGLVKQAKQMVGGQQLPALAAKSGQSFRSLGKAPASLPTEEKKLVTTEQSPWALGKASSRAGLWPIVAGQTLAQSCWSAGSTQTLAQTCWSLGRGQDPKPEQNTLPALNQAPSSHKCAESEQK

Compound: CC(C)C[C@@H](C=O)NC(=O)[C@H](CC(C)C)NC(=O)[C@H](CC(C)C)NC(=O)OCc1ccccc1 [MG132] (Cbz-Leu-Leu-Leu-aldehyde)
- effect of inhibitor on UNC8153-mediated NSD2 degradation [1]: completely ablates NSD2 degradation

Compound: O=C1COc2cc(C(=O)N(Cc3ccc(C(=O)Nc4ccncn4)cc3)C3CC3)ccc2N1 [UNC6934]
- global H3K36me2 levels in KMS11 cells [2]: remain unaltered

Compound: NS(=O)(=O)OC[C@@H]1C[C@@H](n2ccc3c(N[C@H]4CCc5ccccc54)ncnc32)C[C@@H]1O [MLN4924]
- effect of inhibitor on UNC8153-mediated NSD2 degradation [1]: prevented NSD2 degradation

Compound: NS(=O)(=O)OC[C@H]1C[C@@H](Nc2ccnc3cc(-c4cccc(SC(F)(F)F)c4)nn23)[C@H](O)[C@@H]1O [TAK243]
- effect of inhibitor on UNC8153-mediated NSD2 degradation [1]: prevented NSD2 degradation

Compound: NCCCCCCNC(=O)c1ccc(NC(=O)c2ccc(CN(C(=O)c3ccc4c(c3)OCC(=O)N4)C3CC3)cc2)cc1 [UNC8153]
- H3K36me1 level [3]: increase in H3K36 monomethylation
- extent of degradation of NSD2-long 96 h after a single treatment [4]: above 60%
- cell adhesion to Matrigel [5]: Significant antiadhesive effects
- H3K36me2 levels, time course ([6]; 20 μM, 2−8 days, loss after 6 days, control 8 days): Significant loss of the H3K36me2 mark
- H3K36me2 levels, dose response ([6]; 1−60 μM, 6 days): dose-dependent reduction of the H3K36me2 mark
- BRET signal between HaloTag-ubiquitin and NanoLuc-NSD2-PWWP1 [7]: increased BRET signals
- proliferation of MM1S cells [8]: mild antiproliferative effect
- proliferative potential of HEK293 cells [9]: no significant changes in proliferative potential
- proliferative potential of MDA-MB-231 cells [10]: no significant changes in proliferative potential
- NSD2 degradation 30 min after compound treatment ([11]; 3 and 10 μM): ~ 40%
- hook effect in NSD2 reduction ([11]; confirmed by immunoblotting): a hook effect occurs at high concentrations
- degradation of NSD1 [12]: not degraded
- degradation of NSD3 [13]: not degraded
- proliferation / cell viability of KMS11 cells [14]: did not result in a significant change in proliferation
- selectivity for NSD2 over other NSD family members in MM1S cells [15]: selectively degrades NSD2 over other NSD family members
- H3K36me3 level [16]: decreased slightly
- DC50 [17]: 3.41 µM
- selectivity of NSD2 degradation within the measurable proteome [18]: NSD2 was selectively degraded
- NSD2 and H3K36me2 modulation in RS411 cells [19]: similarly responsive
- NSD2 and H3K36me2 modulation in MM1S cells [20]: similarly responsive
- proliferative potential of U2OS cells [21]: no significant changes in proliferative potential

Compound: O=C(CCCC[C@@H]1SC[C@@H]2NC(=O)N[C@@H]21)NCCOCCOCCOCCOCCOCCOCCOCCOCCOCCOCCOCCNC(=O)c1ccc(NC(=O)c2ccc(CN(C(=O)c3ccc4c(c3)OCC(=O)N4)C3CC3)cc2)cc1 [UNC7096]
- binding to NSD2 (in words) [22]: maintains binding to NSD2
